Earlier results in publication PMC2192333 (The Journal of Experimental Medicine, 1996).

How the values were obtained:
C3bi = details: mutation in CD11b

Asp-140GlySer to AlaGlyAla: mutation of the closely related integrin CD11b
binding to C3bi (C3bi): abohshed binding to C3bi

CD11d/CD18: recently described fourth member of the CD18 integrins
binding to ICAM-3 (ICAM-3): high affinity

murine LFA-1: murine leukocyte integrin LFA-1
binding of murine LFA-1 to human ICAM-1 (human ICAM-1): does not bind human ICAM-1
